Values after ≈ are worked out from the molar mass of the structure shown. Active and inactive are the calls of the source. No cut-off for these calls is given here.
Columns and labels:
Staphylococcus aureus [1] = assay: Antibacterial activity against Staphylococcus aureus after 24 hrs by twofold serial dilution method; assay type: functional
Vibrio cholerae = assay: Antibacterial activity against Vibrio cholerae after 24 hrs by twofold serial dilution method; assay type: functional
Escherichia coli [2] = assay: Antibacterial activity against Escherichia coli after 24 hrs by twofold serial dilution method; assay type: functional
Candida albicans = assay: Antifungal activity against Candida albicans after 72 to 96 hrs by twofold serial dilution method; assay type: functional
Candida [3] = assay: Antifungal activity against Candida 6 after 72 to 96 hrs by twofold serial dilution method; assay type: functional
Candida [4] = assay: Antifungal activity against Candida 51 after 72 to 96 hrs by twofold serial dilution method; assay type: functional
Aspergillus flavus [5] = assay: Antifungal activity against Aspergillus flavus after 72 to 96 hrs by twofold serial dilution method; assay type: functional
Pseudomonas aeruginosa = assay: Antibacterial activity against Pseudomonas aeruginosa after 24 hrs by twofold serial dilution method; assay type: functional
Streptococcus = assay: Antibacterial activity against beta-Hemolytic streptococcus after 24 hrs by twofold serial dilution method; assay type: functional
Staphylococcus aureus [6] = assay: Antibacterial activity against Staphylococcus aureus at 200 ug/ml after 24 hrs by twofold serial dilution method; assay type: functional, organism-based
Escherichia coli [7] = assay: Antibacterial activity against Escherichia coli at 200 ug/ml after 24 hrs by twofold serial dilution method; assay type: functional, organism-based
Aspergillus flavus [8] = assay: Antifungal activity against Aspergillus flavus at 200 ug/ml after 72 to 96 hrs by twofold serial dilution method; assay type: functional, organism-based
Candida [9] = assay: Antifungal activity against Candida 51 at 200 ug/ml after 72 to 96 hrs by twofold serial dilution method; assay type: functional, organism-based

Row | SMILES | MIC (Staphylococcus aureus [1]) | MIC (Vibrio cholerae) | MIC (Escherichia coli [2]) | MIC (Candida albicans) | MIC (Candida [3]) | MIC (Candida [4]) | MIC (Aspergillus flavus [5]) | MIC (Pseudomonas aeruginosa) | MIC (Streptococcus) | MIC (Staphylococcus aureus [6]) | MIC (Escherichia coli [7]) | MIC (Aspergillus flavus [8]) | MIC (Candida [9])
1 | Cc1ccc(C2C/C(=N\N3C(=O)CNC3=S)C(C)C(c3ccc(C)cc3)N2)cc1 (configuration not stated) | 25 µg/mL (≈ 61.5 µM) | 50 µg/mL (≈ 123 µM) | 50 µg/mL (≈ 123 µM) | 50 µg/mL (≈ 123 µM) | 6.25 µg/mL (≈ 15.4 µM) | 12.5 µg/mL (≈ 30.7 µM) | 12.5 µg/mL (≈ 30.7 µM) | 50 µg/mL (≈ 123 µM) | 50 µg/mL (≈ 123 µM) |  |  |  | 
2 | O=C1CNC(=S)N1N=C1CC(c2ccc(F)cc2)NC(c2ccc(F)cc2)C1 (configuration not stated) | 50 µg/mL (≈ 125 µM) | 6.25 µg/mL (≈ 15.6 µM) | 12.5 µg/mL (≈ 31.2 µM) | 50 µg/mL (≈ 125 µM) | 50 µg/mL (≈ 125 µM) | 50 µg/mL (≈ 125 µM) | 12.5 µg/mL (≈ 31.2 µM) | 6.25 µg/mL (≈ 15.6 µM) | 6.25 µg/mL (≈ 15.6 µM) |  |  |  | 
3 | Cc1ccc(C2CC(=NN3C(=O)CNC3=S)CC(c3ccc(C)cc3)N2)cc1 (configuration not stated) |  | 100 µg/mL (≈ 255 µM) | 200 µg/mL (≈ 510 µM) | 12.5 µg/mL (≈ 31.8 µM) | 6.25 µg/mL (≈ 15.9 µM) | 6.25 µg/mL (≈ 15.9 µM) | 6.25 µg/mL (≈ 15.9 µM) | 25 µg/mL (≈ 63.7 µM) | 100 µg/mL (≈ 255 µM) | inactive |  |  | 
4 | COc1ccc(C2C/C(=N\N3C(=O)CNC3=S)C(C)(C)C(c3ccc(OC)cc3)N2)cc1 (configuration not stated) | 200 µg/mL (≈ 442 µM) | 50 µg/mL (≈ 110 µM) |  | 12.5 µg/mL (≈ 27.6 µM) | 25 µg/mL (≈ 55.2 µM) | 6.25 µg/mL (≈ 13.8 µM) | 6.25 µg/mL (≈ 13.8 µM) | 50 µg/mL (≈ 110 µM) | 50 µg/mL (≈ 110 µM) |  | inactive |  | 
5 | CC1(C)/C(=N/N2C(=O)CNC2=S)CC(c2ccccc2)NC1c1ccccc1 (configuration not stated) | 100 µg/mL (≈ 255 µM) | 25 µg/mL (≈ 63.7 µM) | 100 µg/mL (≈ 255 µM) | 50 µg/mL (≈ 127 µM) | 100 µg/mL (≈ 255 µM) | 50 µg/mL (≈ 127 µM) |  | 100 µg/mL (≈ 255 µM) | 25 µg/mL (≈ 63.7 µM) |  |  | inactive | 
6 | Cc1ccc(C2C/C(=N\N3C(=O)CNC3=S)C(C)(C)C(c3ccc(C)cc3)N2)cc1 (configuration not stated) | 25 µg/mL (≈ 59.4 µM) | 25 µg/mL (≈ 59.4 µM) | 50 µg/mL (≈ 119 µM) | 25 µg/mL (≈ 59.4 µM) | 6.25 µg/mL (≈ 14.9 µM) | 12.5 µg/mL (≈ 29.7 µM) | 25 µg/mL (≈ 59.4 µM) | 100 µg/mL (≈ 238 µM) | 25 µg/mL (≈ 59.4 µM) |  |  |  | 
7 | O=C1CNC(=S)N1N=C1CC(c2ccc(Cl)cc2)NC(c2ccc(Cl)cc2)C1 (configuration not stated) | 50 µg/mL (≈ 115 µM) | 6.25 µg/mL (≈ 14.4 µM) | 12.5 µg/mL (≈ 28.8 µM) | 50 µg/mL (≈ 115 µM) | 12.5 µg/mL (≈ 28.8 µM) | 25 µg/mL (≈ 57.7 µM) | 50 µg/mL (≈ 115 µM) | 6.25 µg/mL (≈ 14.4 µM) | 6.25 µg/mL (≈ 14.4 µM) |  |  |  | 
8 | CC1(C)/C(=N/N2C(=O)CNC2=S)CC(c2ccc(Cl)cc2)NC1c1ccc(Cl)cc1 (configuration not stated) | 25 µg/mL (≈ 54.2 µM) | 12.5 µg/mL (≈ 27.1 µM) | 50 µg/mL (≈ 108 µM) | 50 µg/mL (≈ 108 µM) | 50 µg/mL (≈ 108 µM) | 50 µg/mL (≈ 108 µM) | 25 µg/mL (≈ 54.2 µM) | 25 µg/mL (≈ 54.2 µM) | 12.5 µg/mL (≈ 27.1 µM) |  |  |  | 
9 | CC1/C(=N/N2C(=O)CNC2=S)CC(c2ccccc2)NC1c1ccccc1 (configuration not stated) | 200 µg/mL (≈ 528 µM) | 100 µg/mL (≈ 264 µM) | 50 µg/mL (≈ 132 µM) | 50 µg/mL (≈ 132 µM) | 50 µg/mL (≈ 132 µM) | 50 µg/mL (≈ 132 µM) | 50 µg/mL (≈ 132 µM) | 50 µg/mL (≈ 132 µM) | 100 µg/mL (≈ 264 µM) |  |  |  | 
10 | CC1(C)/C(=N/N2C(=O)CNC2=S)CC(c2ccc(F)cc2)NC1c1ccc(F)cc1 (configuration not stated) | 12.5 µg/mL (≈ 29.2 µM) | 6.25 µg/mL (≈ 14.6 µM) | 6.25 µg/mL (≈ 14.6 µM) | 50 µg/mL (≈ 117 µM) | 50 µg/mL (≈ 117 µM) | 50 µg/mL (≈ 117 µM) | 25 µg/mL (≈ 58.3 µM) | 6.25 µg/mL (≈ 14.6 µM) | 6.25 µg/mL (≈ 14.6 µM) |  |  |  | 
11 | COc1ccc(C2CC(=NN3C(=O)CNC3=S)CC(c3ccc(OC)cc3)N2)cc1 (configuration not stated) | 50 µg/mL (≈ 118 µM) | 100 µg/mL (≈ 236 µM) | 50 µg/mL (≈ 118 µM) | 12.5 µg/mL (≈ 29.4 µM) | 6.25 µg/mL (≈ 14.7 µM) |  | 12.5 µg/mL (≈ 29.4 µM) | 100 µg/mL (≈ 236 µM) | 100 µg/mL (≈ 236 µM) |  |  |  | inactive
12 | CC1/C(=N/N2C(=O)CNC2=S)CC(c2ccc(F)cc2)NC1c1ccc(F)cc1 (configuration not stated) | 6.25 µg/mL (≈ 15.1 µM) | 12.5 µg/mL (≈ 30.2 µM) | 12.5 µg/mL (≈ 30.2 µM) | 6.25 µg/mL (≈ 15.1 µM) | 12.5 µg/mL (≈ 30.2 µM) | 6.25 µg/mL (≈ 15.1 µM) | 6.25 µg/mL (≈ 15.1 µM) | 6.25 µg/mL (≈ 15.1 µM) | 12.5 µg/mL (≈ 30.2 µM) |  |  |  | 
13 | OC(Cn1cncn1)(Cn1cncn1)c1ccc(F)cc1F [FLUCONAZOLE] |  |  |  | 50 µg/mL (≈ 163 µM) | 25 µg/mL (≈ 81.6 µM) | 25 µg/mL (≈ 81.6 µM) | 50 µg/mL (≈ 163 µM) |  |  |  |  |  | 
14 | O=C(O)c1cn(C2CC2)c2cc(N3CCNCC3)c(F)cc2c1=O [CIPROFLOXACIN] |  | 50 µg/mL (≈ 151 µM) | 25 µg/mL (≈ 75.4 µM) |  |  |  |  |  | 50 µg/mL (≈ 151 µM) |  |  |  | 
15 | COc1ccc(C2C/C(=N\N3C(=O)CNC3=S)C(C)C(c3ccc(OC)cc3)N2)cc1 (configuration not stated) | 50 µg/mL (≈ 114 µM) | 25 µg/mL (≈ 57 µM) | 100 µg/mL (≈ 228 µM) | 50 µg/mL (≈ 114 µM) | 12.5 µg/mL (≈ 28.5 µM) | 12.5 µg/mL (≈ 28.5 µM) | 12.5 µg/mL (≈ 28.5 µM) | 25 µg/mL (≈ 57 µM) | 25 µg/mL (≈ 57 µM) |  |  |  | 
16 | CC1/C(=N/N2C(=O)CNC2=S)CC(c2ccc(Cl)cc2)NC1c1ccc(Cl)cc1 (configuration not stated) | 6.25 µg/mL (≈ 14 µM) | 50 µg/mL (≈ 112 µM) | 50 µg/mL (≈ 112 µM) | 50 µg/mL (≈ 112 µM) | 50 µg/mL (≈ 112 µM) | 12.5 µg/mL (≈ 27.9 µM) | 12.5 µg/mL (≈ 27.9 µM) | 50 µg/mL (≈ 112 µM) | 50 µg/mL (≈ 112 µM) |  |  |  | 
17 | O=C1CNC(=S)N1N=C1CC(c2ccccc2)NC(c2ccccc2)C1 (configuration not stated) | 100 µg/mL (≈ 274 µM) | 50 µg/mL (≈ 137 µM) | 50 µg/mL (≈ 137 µM) | 12.5 µg/mL (≈ 34.3 µM) | 50 µg/mL (≈ 137 µM) | 100 µg/mL (≈ 274 µM) | 12.5 µg/mL (≈ 34.3 µM) | 50 µg/mL (≈ 137 µM) | 50 µg/mL (≈ 137 µM) |  |  |  | 

Source: ChEMBL document CHEMBL1153210, “Synthesis, spectral analysis and in vitro microbiological evaluation of 3-(3-alkyl-2,6-diarylpiperin-4-ylidene)-2-thioxoimidazolidin-4-ones as a new class of antibacterial and antifungal agents” (2010)
